Experimental data published in patent publication EP2669372A1, “HPPD variants and methods of use” (Bayer CropScience AG, priority 2010, dated 2012).
Like-named read-outs stand apart in the source and are kept apart here.

Columns and labels:
Experiment in all cases: biochemical
[1] = target: T1, Arabidopsis HPPD single point mutant "SEQ ID No. 44" (Arabidopsis thaliana, UniProt P93836, L368M)
T1 construct: encoding mutant HPPD polypeptide, plus containing at the 5' end a nucleic acid encoding an alanine and 6 histidine amino acids; made in house; host or cells: E. coli BL21 (DE3) (described for the wild type construct)
T1 sequence (P93836 whole entry L368M): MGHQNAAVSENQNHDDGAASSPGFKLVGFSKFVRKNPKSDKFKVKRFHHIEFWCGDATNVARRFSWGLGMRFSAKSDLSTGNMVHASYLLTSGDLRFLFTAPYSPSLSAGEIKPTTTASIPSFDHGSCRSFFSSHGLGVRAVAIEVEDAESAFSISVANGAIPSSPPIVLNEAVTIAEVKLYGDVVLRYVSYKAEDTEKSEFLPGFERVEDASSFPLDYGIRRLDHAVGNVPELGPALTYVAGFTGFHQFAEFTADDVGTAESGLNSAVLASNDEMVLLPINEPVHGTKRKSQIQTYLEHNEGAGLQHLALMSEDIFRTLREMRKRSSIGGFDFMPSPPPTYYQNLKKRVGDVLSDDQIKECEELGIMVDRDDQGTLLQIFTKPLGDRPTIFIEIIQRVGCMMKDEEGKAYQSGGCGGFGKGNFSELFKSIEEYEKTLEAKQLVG
Source text: (§1) In this content, pI50-value means the log value of the concentration of inhibitor necessary to inhibit 50% of the enzyme activity in molar concentration.

[2] = target: T2, Arabidopsis HPPD single point mutant "SEQ ID No. 48" (Arabidopsis thaliana, UniProt P93836, K421Q)
T2 construct: encoding mutant HPPD polypeptide, plus containing at the 5' end a nucleic acid encoding an alanine and 6 histidine amino acids; made in house; host or cells: E. coli BL21 (DE3) (described for the wild type construct)
T2 sequence (P93836 whole entry K421Q): as the sequence (P93836 whole entry L368M) above, with M368L, K421Q counted along it
Source text: as §1

[3] = target: T3, Arabidopsis HPPD single point mutant "SEQ ID No. 35" (Arabidopsis thaliana, UniProt P93836, E252S)
T3 construct: encoding mutant HPPD polypeptide, plus containing at the 5' end a nucleic acid encoding an alanine and 6 histidine amino acids; Ala + His6 behind Met1 (N); made in house; host or cells: E. coli BL21 (DE3) (described for the wild type construct)
T3 sequence (P93836 whole entry E252S): as the sequence (P93836 whole entry L368M) above, with E252S, M368L counted along it
Source text: as §1

[4] = target: T4, Arabidopsis HPPD single point mutant "SEQ ID No. 42" (Arabidopsis thaliana, UniProt P93836, P280A)
T4 construct: encoding mutant HPPD polypeptide, plus containing at the 5' end a nucleic acid encoding an alanine and 6 histidine amino acids; made in house; host or cells: E. coli BL21 (DE3) (described for the wild type construct)
T4 sequence (P93836 whole entry P280A): as the sequence (P93836 whole entry L368M) above, with P280A, M368L counted along it
Source text: as §1

[5] = target: T5, Arabidopsis HPPD single point mutant "SEQ ID No. 40" (Arabidopsis thaliana, UniProt P93836, V269A)
T5 construct: encoding mutant HPPD polypeptide, plus containing at the 5' end a nucleic acid encoding an alanine and 6 histidine amino acids; made in house; host or cells: E. coli BL21 (DE3) (described for the wild type construct)
T5 sequence (P93836 whole entry V269A): as the sequence (P93836 whole entry L368M) above, with V269A, M368L counted along it
Source text: as §1

[6] = target: T6, Arabidopsis HPPD single point mutant "SEQ ID No. 50" (Arabidopsis thaliana, UniProt P93836, K421V)
T6 construct: encoding mutant HPPD polypeptide, plus containing at the 5' end a nucleic acid encoding an alanine and 6 histidine amino acids; made in house; host or cells: E. coli BL21 (DE3) (described for the wild type construct)
T6 sequence (P93836 whole entry K421V): as the sequence (P93836 whole entry L368M) above, with M368L, K421V counted along it
Source text: as §1

[7] = target: T7, Arabidopsis HPPD single point mutant "SEQ ID No. 46" (Arabidopsis thaliana, UniProt P93836, K421I)
T7 construct: encoding mutant HPPD polypeptide, plus containing at the 5' end a nucleic acid encoding an alanine and 6 histidine amino acids; made in house; host or cells: E. coli BL21 (DE3) (described for the wild type construct)
T7 sequence (P93836 whole entry K421I): as the sequence (P93836 whole entry L368M) above, with M368L, K421I counted along it
Source text: as §1

Cc1ccc(S(=O)(=O)Oc2c(C(=O)c3ccc(Cl)cc3Cl)c(C)nn2C)cc1 [Pyrazolat]
IC50 [1]: 12.6 µM
IC50 [2]: 10 µM
IC50 [3]: 20 µM
IC50 [4]: 20 µM
IC50 [5]: 39.8 µM
IC50 [6]: 31.6 µM
IC50 [7]: 31.6 µM

Cc1nn(C)c(O)c1C(=O)c1ccc(C(F)(F)F)cc1S(C)(=O)=O [Pyrasulfotole]
IC50 ([1]; read-out: pI50 (converted)): 10 µM
IC50 [2]: 15.8 µM
IC50 [3]: 50.1 µM
IC50 [4]: 39.8 µM
IC50 [5]: 39.8 µM
IC50 [6]: 39.8 µM
IC50 [7]: 50.1 µM
